“And” between values parts separate entries of the source, which are not always exact repeats. Equal entries are not always repeated. Marks after values point to notes of the source that are not given here.
Columns and labels:
patients with MDD [1] = experiment: Changes in Sexual Function Questionnaire (CSFQ) scores, double-blind placebo-controlled clinical study; assay type: in vivo, Humans; set-up: key to CSFQ Desire/Interest score / CSFQ Arousal/Excitement score / CSFQ Orgasm/Completion score / CSFQ Total Score / CSFQ Pleasure score / CSFQ Desire/Frequency score: CSFQ items on 5-point scale; higher = more favorable sexual function
Procedure: (§1) A double-blind, randomized, placebo-controlled, parallel-group study was performed to evaluate the efficacy, safety and tolerability of OPC-14523 in patients with MDD. The patients selected for participation in the trial had to meet DSM-IV-TR criteria for MDD (296.2x or 296.3x; diagnosis via MINI) and had had symptoms of depression for at least 2 months before the start of the double-blind treatment. Among other drugs prohibited during the study, patients were prohibited from taking drugs used to enhance sexual function, including, but not limited to, sildenafil, tadalafil and vardenafil, or taking psychopharmacologic drugs.
There were 131 patients assigned to receive OPC-14523 at the start of the study. One hundred twenty seven (127) of these patients took at least one dose of OPC-14523. There were 137 patients assigned to receive placebo at the start of the study. One hundred thirty three (133) of these patients took at least one dose of placebo.
Each patient was expected to participate for up to 10 weeks. The 10 weeks included: i) a 4- to 10-day screening period, during which potential participants were administered placebo in a single-blind manner; ii) an 8-week double-blind treatment period; and iii) a 4- to 10- day post-treatment visit period. Baseline evaluations, including assessment of sexual function, were conducted on Day −1. The next day, Day 1, the double-blind medication was begun. All treatment was on an outpatient basis.
The dosages studied were 5 mg BID OPC-14523 (10 mg total daily dose of immediate release tablet of Example 1) and placebo. The drugs were taken after meals in the morning and in the evening, about 12 hours apart.
Data on sexual function were collected using the Changes in Sexual Function Questionnaire (CSFQ). The CSFQ is a 14-item self-report measure of sexual functioning vis-â-vis experiences of pleasure, desire, arousal, and orgasm, with a 5-point response option for each item. The 14-item validated CSFQ was developed from a questionnaire comprising 35 and 36 items for female and male respondents, respectively (Clayton et al., Psychopharmacol Bull. 33(4):731-45 (1997) and Clayton et al., Psychopharmacol Bull. 33(4):747-53 (1997), each incorporated herein by reference in its entirety). The CSFQ has also been independently validated (Bobes et al., J Sex Marital Ther. 26(2): 119-31(2000)). The 14-item CSFQ includes items 8, 11, 14, 19-24 from the interview version of the CSFQ (“CSFQ-I”); Clayton et al., Psychopharmacol Bull. 33(4):731-45 (1997)). The CSFQ differs for men and women, reflecting some variation in wording of items. Males were given the male clinical version, CSFQ-M-C, and women were given the female clinical version, CSFQ-F-C. CSFQ-F-C includes items 25, 27, 28, 30 and 31 from the questions for women on the CSFG-I. CSFQ-M-C includes items 28-32 from the questions for men on the CSFQ-I, as well as item 25 from the questions for women.
The 14-item CSFQ has subscales for sexual pleasure (1 item), desire/frequency (2 items), desire/interest (3 items), arousal (3 items), and orgasm (3 items). In addition, a 14-item total score may be calculated. Higher scores are indicative of more favorable sexual functioning. Threshold scores for total and sub-scales have been defined. A score below the threshold score indicates dysfunction.
Results were scored and analyzed according to the CSFQ instruction manual. The p-values resulted from an analysis of covariance (ANCOVA) linear model where the dependent variable is the change from baseline and independent variables are site effect, treatment effect, and baseline. The p-value is from the Type III sums of squares t-test for the hypothesis that the treatment groups are the same versus the alternative they are different. Last observation carry-forward (LOCF) analysis was used as indicated. In the LOCF analysis, for patients who dropped out before completion of the study, the last observations were carried forward to the final time point. […]

patients with MDD [2] = experiment: Efficacy on MDD, main indication of the clinical trial; assay type: in vivo, Humans; conditions: main indication in the clinical trial; 5 mg BID, 8 weeks
Procedure: as §1

[3] = all patients (men and women), Baseline, before treatment
[4] = all patients (men and women), Day 28, 5 mg BID, LOCF
[5] = all patients (men and women), Day 56, 5 mg BID, LOCF
[6] = men only, Baseline, before treatment
[7] = men only, Day 28, 5 mg BID, LOCF
[8] = men only, Day 56, 5 mg BID, LOCF
[9] = women only, Baseline, before treatment
[10] = women only, Day 28, 5 mg BID, LOCF
[11] = women only, Day 56, 5 mg BID, LOCF

SMILES: COc1cccc2c1CCC(=O)N2CCCN1CCN(c2cccc(Cl)c2)CC1 [OPC-14523, 1-[3-[4-(3-chlorophenyl)-1-piperazinyl]propyl]-5-methoxy-3,4-dihydro-2(1H)-quinolone]
- CSFQ Arousal/Excitement score (patients with MDD [1]; [3]): 8.97
- CSFQ Desire/Frequency score (patients with MDD [1]; [3]): 5.13
- CSFQ Desire/Interest score (patients with MDD [1]; [3]): 7.30
- CSFQ Orgasm/Completion score (patients with MDD [1]; [3]): 9.50
- CSFQ Pleasure score (patients with MDD [1]; [3]): 2.06
- CSFQ Total Score (patients with MDD [1]; [3]): 41.9
- CSFQ Arousal/Excitement score (patients with MDD [1]; [4]): 9.24
- CSFQ Desire/Frequency score (patients with MDD [1]; [4]): 5.39
- CSFQ Desire/Interest score (patients with MDD [1]; [4]): 7.66
- CSFQ Orgasm/Completion score (patients with MDD [1]; [4]): 9.56
- CSFQ Pleasure score (patients with MDD [1]; [4]): 2.41**
- CSFQ Total Score (patients with MDD [1]; [4]): 43.4
- CSFQ Arousal/Excitement score (patients with MDD [1]; [5]): 9.55
- CSFQ Desire/Frequency score (patients with MDD [1]; [5]): 5.57*
- CSFQ Desire/Interest score (patients with MDD [1]; [5]): 7.94*
- CSFQ Orgasm/Completion score (patients with MDD [1]; [5]): 9.77
- CSFQ Pleasure score (patients with MDD [1]; [5]): 2.51 (p = 0.11)
- CSFQ Total Score (patients with MDD [1]; [5]): 44.4 (p = 0.05)
- sexual function overall, CSFQ Total Scores (in words) (patients with MDD [1]; all patients, compared with placebo, Day 28 and/or Day 56): significantly improved sexual function overall
- sexual desire (in words) (patients with MDD [1]; both men and women): increased sexual desire
- sexual pleasure and sexual arousal and excitement (in words) (patients with MDD [1]; men): strong trend of improved sexual pleasure and sexual arousal and excitement
- CSFQ Arousal/Excitement score (patients with MDD [1]; [6]): 10.5 and 10.48
- CSFQ Desire/Frequency score (patients with MDD [1]; [6]): 5.8 and 5.77
- CSFQ Desire/Interest score (patients with MDD [1]; [6]): 8.2 and 8.21
- CSFQ Orgasm/Completion score (patients with MDD [1]; [6]): 11.3 and 11.33
- CSFQ Pleasure score (patients with MDD [1]; [6]): 2.2 and 2.15
- CSFQ Total Score (patients with MDD [1]; [6]): 47.6
- CSFQ Arousal/Excitement score (patients with MDD [1]; [7]): 11.13 (p = 0.07)
- CSFQ Desire/Frequency score (patients with MDD [1]; [7]): 6.26*
- CSFQ Desire/Interest score (patients with MDD [1]; [7]): 8.94*
- CSFQ Orgasm/Completion score (patients with MDD [1]; [7]): 11.32
- CSFQ Pleasure score (patients with MDD [1]; [7]): 2.68***
- CSFQ Total Score (patients with MDD [1]; [7]): 50.1*
- CSFQ Arousal/Excitement score (patients with MDD [1]; [8]): 11.17 (p = 0.13)
- CSFQ Desire/Frequency score (patients with MDD [1]; [8]): 6.38*
- CSFQ Desire/Interest score (patients with MDD [1]; [8]): 8.91 (p = 0.07)
- CSFQ Orgasm/Completion score (patients with MDD [1]; [8]): 11.34
- CSFQ Pleasure score (patients with MDD [1]; [8]): 2.60 (p = 0.10)
- CSFQ Total Score (patients with MDD [1]; [8]): 50.2 (p = 0.12)
- sexual function overall (in words) (patients with MDD [1]; men, compared with placebo, Day 28 and/or Day 56): significantly improved sexual function overall
- sexual interest (in words) (patients with MDD [1]; men, p=0.07): improved sexual interest
- total CSFQ and every subscale vs placebo (in words) (patients with MDD [1]; summary): advantage over placebo
- CSFQ Arousal/Excitement score (patients with MDD [1]; [9]): 7.9 and 7.91
- CSFQ Desire/Frequency score (patients with MDD [1]; [9]): 4.7 and 4.68
- CSFQ Desire/Interest score (patients with MDD [1]; [9]): 6.7 and 6.66
- CSFQ Orgasm/Completion score (patients with MDD [1]; [9]): 8.2 and 8.21
- CSFQ Pleasure score (patients with MDD [1]; [9]): 2.0 and 1.99
- CSFQ Total Score (patients with MDD [1]; [9]): 37.8
- CSFQ Arousal/Excitement score (patients with MDD [1]; [10]): 7.91
- CSFQ Desire/Frequency score (patients with MDD [1]; [10]): 4.78
- CSFQ Desire/Interest score (patients with MDD [1]; [10]): 6.76
- CSFQ Orgasm/Completion score (patients with MDD [1]; [10]): 8.33
- CSFQ Pleasure score (patients with MDD [1]; [10]): 2.22
- CSFQ Total Score (patients with MDD [1]; [10]): 38.7
- CSFQ Arousal/Excitement score (patients with MDD [1]; [11]): 8.43
- CSFQ Desire/Frequency score (patients with MDD [1]; [11]): 5.01
- CSFQ Desire/Interest score (patients with MDD [1]; [11]): 7.26 (p = 0.08)
- CSFQ Orgasm/Completion score (patients with MDD [1]; [11]): 8.69
- CSFQ Pleasure score (patients with MDD [1]; [11]): 2.46
- CSFQ Total Score (patients with MDD [1]; [11]): 40.4
- sexual desire/interest (in words) (patients with MDD [1]; women, compared with placebo, Day 28 and/or Day 56): strong trend
- sexual interest (in words) (patients with MDD [1]; women, p=0.08): improved sexual interest
- effect on MDD (patients with MDD [2]): did not demonstrate a statistically significant effect

Source: patent publication US20070142395A1, “Treatment of sexual dysfunction with 1-[3-[4-(3-chlorophenyl)-1-piperazinyl]propyl]-5-methoxy-3,4-dihydro-2(1H)-quinolone or salt thereof” (Vela Pharmaceuticals, Inc., priority 2005, published 2007)
